Data: US4572916A, “Tablets” (priority 1979, dated 1986)
Values after ≈ are worked out from the molar mass of the structure shown. “Also recorded” adds a separate entry of the source. Each block holds one molecule with its values, some of them ahead of it.

What was measured:
[1] = Flowability: flow of 100 g tablet mix through a 3/8 inch orifice funnel; assay type: physicochemical; settings: for Time for 100 g of the tablet mix to flow through the 3/8 inch orifice funnel: no vibration, "No flow" = unable to flow completely without agitation
[2] = Tablets made using a 1/4 inch flat face punch; assay type: physicochemical; settings: Example 6, aspirin tablets; for Tablet making results: 1/4 inch flat face punch
Protocol: (a) The aspirin was mixed with the carrier under test, taking care to avoid moisture pick-up. The flavour was added to the starch with thorough mixing. The magnesium stearate was then added to the starch and this combination blended, with agitation, with the aspirin-carrier mix. (c) Tablets were made using a 1/4 inch flat face punch with the following results: […]

[3] = Tablet formation, integrity and fines during tabletting and handling; assay type: physicochemical
Text: 50 g isomaltulose, 4 g gum arabic, 1 g magnesium stearate and 13 g saccharin were dry mixed, giving a flowable tabletting powder. Tablets were formed by direct compression of the powder. […]

[4] = Reducing power of isomaltulose relative to glucose; assay type: physicochemical
[5] = Solubility in water of isomaltulose; assay type: physicochemical
Tablet weight = assay type: physicochemical; settings: Example 6, aspirin tablets
Text: (d) The tablet weights were:

[6] = Sweetness and taste of isomaltulose
[7] = Tablets made using a 1/4 inch flat face punch; assay type: physicochemical; settings: Example 7, ascorbic acid tablets, in words
[8] = Acid hydrolysis of isomaltulose; assay type: physicochemical; settings: 90 h at 58° C. in 2M HCl
[9] = Equilibrium relative humidity / water content of isomaltulose; assay type: physicochemical; settings: 80% and 22° C.
[10] = tested on: enzyme complex in the human intestine; settings: literature clinical / in vitro studies (Holzen); cited from earlier work
[11] = Tablet hardness: % weight loss on vibration in a container for 1 hour; assay type: physicochemical
Protocol: (e) Tablet hardness was then assessed. For an objective test, the tablets were vibrated in a container for 1 hour.

[12] = Viscosity of isomaltulose solution in water; assay type: physicochemical; settings: H2O

Flowability, 100 g through 3/8" orifice, no agitation ([1]; Example 7, ascorbic acid mix): Agitation required
SMILES: OC[C@H]1O[C@@](CO)(O[C@H]2O[C@H](CO)[C@@H](O)[C@H](O)[C@H]2O)[C@@H](O)[C@@H]1O [Sucrose]

Flowability, 100 g through 3/8" orifice, no agitation ([1]; Example 7, ascorbic acid mix): Agitation required
SMILES: O=C[C@H](O)[C@@H](O)[C@H](O)[C@H](O)CO [Dextrose]

Time for 100 g of the tablet mix to flow through the 3/8 inch orifice funnel ([1]; Example 6, aspirin mix): No flow | Flowability, 100 g through 3/8" orifice, no agitation ([1]; Example 7, ascorbic acid mix): Agitation required | Tablet making results [2]: Tablet machine prone to sticking | tablet quality / tablet formation ([3]; Example 4(i), direct compression with gum arabic, saccharin tablets): not possible to produce coherent tablets | tablet formation ([3]; Example 4(ii), direct compression without binder, saccharin tablets): Tablets could not be made
SMILES: OC[C@H]1O[C@@H](O[C@H]2[C@H](O)[C@@H](O)C(O)O[C@@H]2CO)[C@H](O)[C@@H](O)[C@H]1O (stereo partly shown) [Lactose, reference compound]

Time for 100 g of the tablet mix to flow through the 3/8 inch orifice funnel ([1]; Example 6, aspirin mix): No flow | Tablet making results [2]: As (iv)
SMILES: OC[C@H]1OC(O)[C@H](O)[C@@H](O)[C@@H]1O (stereo partly shown) [Anhydrous dextrose, reference compound]

reducing power [4]: 58-62 % of that of glucose | Time for 100 g of the tablet mix to flow through the 3/8 inch orifice funnel ([1]; Example 6, aspirin mix): 38 s | Flowability, 100 g through 3/8" orifice, no agitation ([1]; Example 7, ascorbic acid mix): 43 s | flowability ([1]; Example 7, ascorbic acid mix, in words): performed well on flowability | dental plaque formation (Streptococcus mutans): little if any dental plaque is formed | solubility in water compared with lactose ([5]; in words, versus lactose): better solubility in water than lactose | solubility ([5]; water, 30° C., H2O, read-out: solubility at 30° C., H2 O): 460 mg/mL (≈ 1340 mM) | tablet weights (Tablet weight): 151 mg | binding power when formed into tablets ([3]; in words): unusually good binding power | degraded at 90 h [8]: 40% | water content at 80% equilibrium relative humidity and 22 °C [9]: 25-32 % water | % weight loss on vibration (tablet hardness) ([11]; Example 6, aspirin tablets, vibrated 1 hour): 3.2% | Weight loss on vibration for 1 hour ([11]; Example 7, ascorbic acid tablets): 1.8% | viscosity at 25° C., 50% w/v, H2 O [12]: 6 cp
SMILES: OC[C@H]1O[C@H](OC[C@H]2OC(O)(CO)[C@@H](O)[C@@H]2O)[C@H](O)[C@@H](O)[C@@H]1O (stereo partly drawn) [Isomaltulose, 6-O-(αglucopyranosyl)-D-fructofuranose]
flowability, comparison of carriers ([1]; Example 6, aspirin mix, in words): comparable with the specially prepared products Dipac and Emdex, and better than the lactose, icing sugar or anydrous dextrose | metabolism by Streptococcus mutans (Streptococcus mutans; preliminary studies): metabolized by Streptococcus mutans | Tablet making results [2]: Tablets successfully made; also recorded: Released from die easily; also recorded: Good shiny appearance; also recorded: Good integrity | tablet making, comparison of carriers ([2]; in words): comparable with the Dipac and Emdex, and superior to the other carriers | fines during handling ([3]; tablets with isomaltulose as diluent versus comparable lactose tablets): often show less tendency to generate fines during handling | taste ([6]; in words): pleasant, not very sweet, reasonably bland taste | sweetness (relative to sucrose sweetness at 7% w/v in water) ([6]; relative to sucrose, 7% w/v in water): 0.37 | tablet quality [7]: shiny, hard and had good appearance; also recorded: clearly superior to the dextrose, lactose and sucrose | fate of the constituent monosaccharides (fructose and glucose) [10]: adsorbed, metabolized and otherwise behave as fructose and glucose derived from sucrose | hydrolysis by an enzyme complex in the human intestine [10]: readily hydrolyzed | tablet hardness ([11]; Example 7, ascorbic acid tablets, in words): not so well on tablet hardness; also recorded: not as hard as with the specially formulated carriers
